Here are results for 1 molecule from patent US11229618B2 (Amarin Pharmaceuticals Ireland Limited, priority 2012, dated 2022).

Holding throughout (format): in vivo, human
The nature of data set [1]: Phase 1 multidose pharmacokinetic study: unesterified EPA in plasma (LC-MS/MS). The settings on record: for Unesterified EPA in plasma, CL/F: day 28. The procedure:
A study to characterize the pharmacokinetics of ethyl eicosapentaenoate in plasma and red blood cells after multiple-dose administration of IPE at 2 g per day and 4 g per day was performed in healthy adult male and female humans.
The study was a phase 1, open-label, randomized, multidose study in healthy, nonsmoking men and women aged>18 and ≤55 years with a body mass index (BMI)>18 and ≤30 kg/m′. Exclusion criteria included use within 6 weeks prior to randomization through study end of any lipid-altering medications or supplements, including statins, niacin at levels of greater than 200 mg/day, fibrates, ezetimibe, bile acid sequestrants, omega-3 fatty acid medications, and supplements or foods enriched with omega-3 fatty acids (no more than 2 servings of fish per week were permitted).
Following a 14-day screening period, subjects entered a 28-day treatment period and were randomized to one of four IPE dose regimen treatment groups as shown in FIG. 1. Group 1 received IPE 2 g daily (1000-mg capsules; twice-daily [BID] regimen); Group 2 received IPE 4 g daily (1000-mg capsules; BID regimen); Group 3 received IPE 2 g daily (1000-mg capsules; once-daily [QD] regimen); and Group 4 received IPE 2 g daily (500-mg capsules; BID regimen). Treatment was administered orally, with or following a meal in the morning and evening for BID regimens, or in the morning only for the QD regimen. Subjects then entered an 18-day post-treatment pharmacokinetic sampling period.
Fasting EPA concentrations were measured with a validated liquid chromatography with tandem mass spectrometry (LC-MS/MS) method in plasma and RBCs prior to the morning dose (days 1, 14, 26, 28) and at serial time points (1, 3, 5, 6, 8, 10, 12, 24, 48, 72, 120, 192, 312, and 432 hours) after the morning dose on day 28. After the last dose on day 28, EPA concentrations were followed for 18 days to estimate the expected long half-life of EPA. Total plasma EPA included all EPA forms (unesterified EPA and that incorporated in phospholipids, triacylglycerols, and cholesteryl esters). In RBCs, EPA was measured in the cell membrane, where EPA is mainly incorporated in phospholipids.
For total EPA in plasma and RBCs, lipids were isolated by acid/methanol/chloroform extraction followed by centrifugation and purified by isohexane and solid-phase extraction after confirmed complete lipid hydrolysis and transmethylation (acid/methanol, 50° C. overnight). For unesterified EPA in plasma, 25 μL of an inhibitor solution (0.5 g sodium fluoride, 1.0 g L-ascorbic acid, and 0.25 g 5-methylisoxazole-3-carboxylic acid per 10 mL water) was included per 1 mL plasma sample to prevent degradation and lipids were isolated by centrifugation after methanol/chloroform extraction (without hydrolysis or methylation) and further purified by protein precipitation and solid-phase extraction. Quantitation utilized linolenic acid as an internal standard and EPA as the standard for the calibration curve; for total plasma EPA, RBC EPA, and unesterified EPA, the lower limits of quantitation were 10 μg/mL, 5 μg/mL, and 50 ng/mL, respectively. EPA concentrations were measured at Charles River Laboratories Ltd (Elphinstone Research Center, Tranent, Edinburgh, Scotland, UK).
Unless otherwise specified, all reported parameters are based on baseline-subtracted concentrations (baseline is due to EPA derived from dietary sources).

For another data set, the system named is fasting TG levels. The data set is described as follows: MARINE: fasting TG lowering and LDL-C. The settings on record: for median percent reductions in TG from baseline, 4 g/day compared with 2 g/day: 12 weeks. The procedure: A multi-center, placebo-controlled randomized, double-blind, 12-week study with an open-label extension is performed to evaluate the efficacy and safety of AMR101 in patients with fasting triglyceride levels≥500 mg/dL. The primary objective of the study is to determine the efficacy of AMR101 2 g daily and 4 g daily, compared to placebo, in lowering fasting TG levels in patients with fasting TG levels≥500 mg/dL and ≤1500 mg/dL (≥5.65 mmol/L and ≤16.94 mmol/L).
The primary efficacy variable for the double-blind treatment period is percent change in TG from baseline to Week 12 endpoint. The secondary efficacy variables for the double-blind treatment period include the following: • Percent changes in total cholesterol (TC), high-density lipoprotein cholesterol (HDL-C), calculated low-density lipoprotein cholesterol (LDL-C), calculated non-high-density lipoprotein cholesterol (non-HDL-C), and very low-density lipoprotein cholesterol (VLDL-C) from baseline to Week 12 endpoint; • Percent change in very low-density lipoprotein TG from baseline to Week 12; • Percent changes in apolipoprotein A-I (apo A-I), apolipoprotein B (apo B), and apo A-I/apo B ratio from baseline to Week 12; • Percent changes in lipoprotein(a) from baseline to Week 12 (selected sites only); • Percent changes in LDL particle number and size, measured by nuclear magnetic resonance, from baseline to Week 12 (selected sites only); • Percent change in remnant-like particle cholesterol from baseline to Week 12 (selected sites only); • Percent change in oxidized LDL from baseline to Week 12 (selected sites only); • Changes in FPG and HbA1c from baseline to Week 12; • Change in insulin resistance, as assessed by the homeostasis model index insulin resistance, from baseline to Week 12; • Percent change in lipoprotein associated phospholipase A2 from baseline to Week 12 (selected sites only); • Change in intracellular adhesion molecule-1 from baseline to Week 12 (selected sites only); • Change in interleukin-6 from baseline to Week 12 (selected sites only); • Change in plasminogen activator inhibitor-1 from baseline to Week 12 (selected sites only); • Change in hsCRP from baseline to Week 12 (selected sites only); • Change in serum phospholipid EPA content from baseline to Week 12; • Change in red blood cell membrane EPA content from baseline to Week 12; and • Change in serum phospholipid and red blood cell membrane content in the following fatty acids from baseline to Week 12: docosapentaenoic acid, docosahexaenoic acid, arachidonic acid, palmitic acid, stearic acid, and oleic acid.
MARINE and ANCHOR were 12-week, phase 3, double-blind studies that randomized patients to IPE 4 g/day, 2 g/day, or placebo. […]

The nature of data set [2]: Phase 1 multidose pharmacokinetic study: safety and tolerability. The settings on record: all groups. An excerpt: The safety population was defined as all randomized subjects who received at least one dose of study drug. The per-protocol population was defined as all safety population subjects who completed the 28-day treatment period without any major protocol deviations, and who provided blood samples for EPA analyses.
Safety assessments consisted of adverse event (AE) monitoring, clinical laboratory measurements (chemistry, hematology, and urinalysis) 12-lead electrocardiographic measurements, vital signs (systolic and diastolic blood pressure, heart rate, respiratory rate, and oral body temperature) and physical examination findings.

Where [3] appears, read: about 2 g orally twice per day, human.

Take `CC/C=C\C/C=C\C/C=C\C/C=C\C/C=C\CCCC(=O)OCC` [IPE, all-cis eicosa-5,8,11,14,17-pentaenoic acid ethyl ester]: the “Unesterified EPA in plasma, CL/F” value in data set [1] (Group 1: IPE 2 g/d 1 × 1000 mg BID) was 364,513 mL/hr. Further, the “Unesterified EPA in plasma, CL/F” value in data set [1] (Group 2: IPE 4 g/d 2 × 1000 mg BID) was 234,329 mL/hr. In addition, the “Unesterified EPA in plasma, CL/F” value in data set [1] (Group 3: IPE 2 g/d 2 × 1000 mg QD) is reported as 241,855 mL/hr. Besides, the “Unesterified EPA in plasma, CL/F” value in data set [1] (Group 4: IPE 2 g/d 2 × 500 mg BID) was 326,622 mL/hr. The “mean plasma CL/F of unesterified eicosapentaenoic acid” value in data set [1] (about 1 g orally twice per day, human) was “about 364,513+/−214,003 mL/h”. In data set [1] (setting [3]), the “mean plasma AUC0-24h of unesterified eicosapentaenoic acid” value is listed as “about 18.4+/−4.6 μg·h/mL”, the “mean plasma CL/F of unesterified eicosapentaenoic acid” value is reported as “about 234,329+/−81,639 mL/h”, the “mean plasma Calm of unesterified eicosapentaenoic acid” value is on record as “about 1.06+/−0.56 μg/mL” and the “mean plasma Cmax of unesterified eicosapentaenoic acid” value is listed as “about 1.4+/−0.41 μg/mL”. For the same molecule, in data set [1] (setting [3]), the “mean plasma T1/2 of unesterified eicosapentaenoic acid” value is given as “about 97.2+/−36.5 hours” and the “median plasma Tmax of unesterified eicosapentaenoic acid” value is on record as “about 5 hours”. In addition, in the data set on fasting TG levels, the “effect on LDL-C” value is recorded as “without raising LDL-C” and the “median percent reductions in TG from baseline, 4 g/day compared with 2 g/day” value is “higher with IPE 4 g/day than with 2 g/day”. For the same molecule, the “median percent reductions in TG from baseline, 4 g/day compared with 2 g/day” value in the data set on fasting TG levels (listed as EPA) is recorded as “higher for subjects administered about 4 grams of EPA per day”. For the same molecule, in the data set on fasting TG levels (patients with very high TG levels), the “effect on TG levels” value is given as “significantly reduced TG levels”. Besides, in data set [2], the “changes in laboratory, electrocardiographic, or physical examination findings” value was “no clinically meaningful changes” and the “intensity of adverse events” value is given as “mild or moderate in intensity”.
